# Laboratory results from US4740601A, “Imidazole derivatives having antimicrobial activities” (SS Pharmaceutical Co., Ltd., priority 1985, dated 1988).
# Read-outs that look alike come from different tables or passages of the source.
# Key:
# Type in all cases: cell-based
# [1] = test system: Helminthosporium sesamum IAM 5012; assay: antimicrobial activity, MIC
# [2] = test system: Bacillus subtilis ATCC 6633; assay: antimicrobial activity, MIC
# [3] = test system: Trichophyton mentagrophytes QM 248; assay: antimicrobial activity, MIC
# [4] = test system: Streptococcus faecalis IFO 12964; assay: antimicrobial activity, MIC
# [5] = test system: Sarcina lutea ATCC 9341; assay: antimicrobial activity, MIC
# [6] = test system: Cladosporium fulvum IAM 5006; assay: antimicrobial activity, MIC
# [7] = test system: Candida albicans NHL 4019; assay: antimicrobial activity, MIC
# [8] = test system: Microsporum gypseum IFO 8231; assay: antimicrobial activity, MIC
# [9] = test system: Staphylococcus aureus Terajima; assay: antimicrobial activity, MIC
# [10] = test system: Candida albicans Yu-1200; assay: antimicrobial activity, MIC
# [11] = test system: Pyricularia oryzae IAM 5016; assay: microbe, parasite or virus in culture
# [12] = test system: Micrococcus lysodeixticus IFO 3333; assay: antimicrobial activity, MIC
# [13] = test system: Trichophyton rubrum NHL J; assay: antimicrobial activity, MIC; details: Trichophyton rubrum NHL J
# [14] = test system: Saccharomyces ruxii 6507; assay: antimicrobial activity, MIC; details: Saccharomyces ruxii 6507
# [15] = test system: Saccharomyces cerevisiae ATCC 9763; assay: antimicrobial activity, MIC
# [16] = test system: Aspergillus niger ATCC 9642; assay: antimicrobial activity, MIC
# [17] = test system: Debaryomyces kloeckeri IFO 0015; assay: antimicrobial activity, MIC
# [18] = test system: Epidermophyton floccosum IFO 9045; assay: antimicrobial activity, MIC
# [19] = test system: Gibberella fujikuroi IAM 8046; assay: antimicrobial activity, MIC
# [20] = test system: Aspergillus oryzae IMF 4014; assay: antimicrobial activity, MIC
# [21] = test system: Staphylococcus aureus FDA 209P; assay: antimicrobial activity, MIC
# [22] = test system: Staphylococcus epidermidis ATCC 12228; assay: antimicrobial activity, MIC
# [23] = test system: Penicillium chrysogenum ATCC 6010; assay: antimicrobial activity, MIC
# [24] = test system: Fusarium moniliforme IAM 5062; assay: antimicrobial activity, MIC
# [25] = test system: Trichophyton tonsurans IFO 5928; assay: antimicrobial activity, MIC
# [26] = test system: Staphylococcus aureus Smith; assay: antimicrobial activity, MIC
# [27] = test system: Microsporum audounii IFO 6074; assay: antimicrobial activity, MIC
# [28] = test system: Microsporum cookei IFO 8303; assay: antimicrobial activity, MIC
# [29] = test system: Trichophyton mentagrophytes IFO 5812; assay: antimicrobial activity, MIC
# [30] = Helminthosporium, IAM5012, Helminthosporium sesamum IAM 5012, read-out: MIC
# [31] = Bacillus subtilis, ATCC6633, Bacillus subtilis ATCC 6633, read-out: MIC
# [32] = Trichophyton mentagrophytes, QM248, Trichophyton mentagrophytes QM 248, read-out: MIC
# [33] = Enterococcus faecalis, IFO12964, Streptococcus faecalis IFO 12964, read-out: MIC
# [34] = Micrococcus luteus, ATCC9341, Sarcina lutea ATCC 9341, read-out: MIC
# [35] = Fulvia fulva, IAM5006, Cladosporium fulvum IAM 5006, read-out: MIC
# [36] = Candida albicans, NHL4019, Candida albicans NHL 4019, read-out: MIC
# [37] = Nannizzia gypsea, IFO8231, Microsporum gypseum IFO 8231, read-out: MIC
# [38] = Staphylococcus aureus, read-out: MIC
# [39] = Pyricularia oryzae, IAM5016, Pyricularia oryzae IAM 5016
# [40] = Micrococcus, IFO3333, Micrococcus lysodeixticus IFO 3333, read-out: MIC
# [41] = Trichophyton rubrum, read-out: MIC
# [42] = Saccharomyces cerevisiae, ATCC9763, Saccharomyces cerevisiae ATCC 9763, read-out: MIC
# [43] = Aspergillus niger, ATCC9642, Aspergillus niger ATCC 9642, read-out: MIC
# [44] = Epidermophyton floccosum, IFO9045, Epidermophyton floccosum IFO 9045, read-out: MIC
# [45] = Fusarium fujikuroi, IAM8046, Gibberella fujikuroi IAM 8046, read-out: MIC
# [46] = Aspergillus oryzae, IMF4014, Aspergillus oryzae IMF 4014, read-out: MIC
# [47] = Staphylococcus aureus, FDA209P, read-out: MIC
# [48] = Staphylococcus epidermidis, ATCC12228, Staphylococcus epidermidis ATCC 12228, read-out: MIC
# [49] = Penicillium chrysogenum, ATCC6010, Penicillium chrysogenum ATCC 6010, read-out: MIC
# [50] = Fusarium verticillioides, IAM5062, Fusarium moniliforme IAM 5062, read-out: MIC
# [51] = Trichophyton tonsurans, IFO5928, Trichophyton tonsurans IFO 5928, read-out: MIC
# [52] = Microsporum, IFO6074, Microsporum audounii IFO 6074, read-out: MIC
# [53] = Paraphyton cookei, IFO8303, Microsporum cookei IFO 8303, read-out: MIC
# [54] = Trichophyton mentagrophytes, IFO5812, Trichophyton mentagrophytes IFO 5812, read-out: MIC
smiles,measurement,setting,value
"CCCCSC=C(c1ccccc1OCCC)n1ccnc1 (single isomer, unassigned) [Compound 46]",MIC,[1]; [30],1.56 µg/mL
same,MIC,[2]; [31],6.25 µg/mL
same,MIC,[3]; [32],< 0.2 µg/mL
same,MIC,[4]; [33],12.5 µg/mL
same,MIC,[5]; [34],6.25 µg/mL
same,MIC,[6]; [35],12.5 µg/mL
same,MIC,[7]; [36],25 µg/mL
same,MIC,[8]; [37],< 0.2 µg/mL
same,MIC,[9]; [38],12.5 µg/mL
same,MIC,"[10]; YU1200, read-out: MIC",50 µg/mL
same,MIC,[11]; [39],< 0.2 µg/mL
same,MIC,[12]; [40],3.12 µg/mL
same,MIC,[13]; [41],< 0.2 µg/mL
same,MIC,[14]; read-out: MIC,0.78 µg/mL
same,MIC,[15]; [42],< 0.2 µg/mL
same,MIC,[16]; [43],1.56 µg/mL
same,MIC,"[17]; IFO0015, read-out: MIC",12.5 µg/mL
same,MIC,[18]; [44],1.56 µg/mL
same,MIC,[19]; [45],0.39 µg/mL
same,MIC,[20]; [46],0.78 µg/mL
same,MIC,[21]; [47],12.5 µg/mL
same,MIC,[22]; [48],6.25 µg/mL
same,MIC,[23]; [49],1.56 µg/mL
same,MIC,[24]; [50],1.56 µg/mL
same,MIC,[25]; [51],< 0.2 µg/mL
same,MIC,[26]; [38],12.5 µg/mL
same,MIC,[27]; [52],< 0.2 µg/mL
same,MIC,[28]; [53],1.56 µg/mL
same,MIC,[29]; [54],< 0.2 µg/mL
"CCCOc1ccccc1C(=CSCc1ccccc1)n1ccnc1 (single isomer, unassigned) [Compound 4]",MIC,[1]; Helminthosporium sesamum IAM 5012,< 0.2 µg/mL
same,MIC,[2]; Bacillus subtilis ATCC 6633,6.25 µg/mL
same,MIC,[3]; Trichophyton mentagrophytes QM 248,< 0.2 µg/mL
same,MIC,[4]; Streptococcus faecalis IFO 12964,12.5 µg/mL
same,MIC,[5]; Sarcina lutea ATCC 9341,6.25 µg/mL
same,MIC,[6]; Cladosporium fulvum IAM 5006,25 µg/mL
same,MIC,[7]; Candida albicans NHL 4019,25 µg/mL
same,MIC,[8]; Microsporum gypseum IFO 8231,< 0.2 µg/mL
same,MIC,[9],12.5 µg/mL
same,MIC,[10],> 100 µg/mL
same,MIC,[11]; Pyricularia oryzae IAM 5016,< 0.2 µg/mL
same,MIC,[12]; Micrococcus lysodeixticus IFO 3333,3.12 µg/mL
same,MIC,[13],< 0.2 µg/mL
same,MIC,[14],< 0.2 µg/mL
same,MIC,[15]; Saccharomyces cerevisiae ATCC 9763,< 0.2 µg/mL
same,MIC,[16]; Aspergillus niger ATCC 9642,1.56 µg/mL
same,MIC,[17],6.25 µg/mL
same,MIC,[18]; Epidermophyton floccosum IFO 9045,1.78 µg/mL
same,MIC,[19]; Gibberella fujikuroi IAM 8046,0.78 µg/mL
same,MIC,[20]; Aspergillus oryzae IMF 4014,1.56 µg/mL
same,MIC,[21],25 µg/mL
same,MIC,[22]; Staphylococcus epidermidis ATCC 12228,12.5 µg/mL
same,MIC,[23]; Penicillium chrysogenum ATCC 6010,3.12 µg/mL
same,MIC,[24]; Fusarium moniliforme IAM 5062,0.78 µg/mL
same,MIC,[25]; Trichophyton tonsurans IFO 5928,< 0.2 µg/mL
same,MIC,[26],12.5 µg/mL
same,MIC,[27]; Microsporum audounii IFO 6074,< 0.2 µg/mL
same,MIC,[28]; Microsporum cookei IFO 8303,1.56 µg/mL
same,MIC,[29]; Trichophyton mentagrophytes IFO 5812,< 0.2 µg/mL
"CCCCOc1ccccc1C(=CSCc1ccccc1)n1ccnc1 (single isomer, unassigned) [Compound 8]",MIC,[1]; [30],0.78 µg/mL
same,MIC,[2]; [31],3.12 µg/mL
same,MIC,[3]; [32],0.39 µg/mL
same,MIC,[4]; [33],> 100 µg/mL
same,MIC,[5]; [34],3.12 µg/mL
same,MIC,[6]; [35],> 100 µg/mL
same,MIC,[7]; [36],> 100 µg/mL
same,MIC,[8]; [37],0.39 µg/mL
same,MIC,[9]; [38],6.25 µg/mL
same,MIC,"[10]; YU1200, read-out: MIC",> 100 µg/mL
same,MIC,[11]; [39],< 0.2 µg/mL
same,MIC,[12]; [40],1.56 µg/mL
same,MIC,[13]; [41],< 0.2 µg/mL
same,MIC,[14]; read-out: MIC,< 0.2 µg/mL
same,MIC,[15]; [42],< 0.2 µg/mL
same,MIC,[16]; [43],12.5 µg/mL
same,MIC,"[17]; IFO0015, read-out: MIC",6.25 µg/mL
same,MIC,[18]; [44],6.25 µg/mL
same,MIC,[19]; [45],6.25 µg/mL
same,MIC,[20]; [46],12.5 µg/mL
same,MIC,[21]; [47],25 µg/mL
same,MIC,[22]; [48],6.25 µg/mL
same,MIC,[23]; [49],12.5 µg/mL
same,MIC,[24]; [50],12.5 µg/mL
same,MIC,[25]; [51],< 0.2 µg/mL
same,MIC,[26]; [38],6.25 µg/mL
same,MIC,[27]; [52],< 0.2 µg/mL
same,MIC,[28]; [53],12.5 µg/mL
same,MIC,[29]; [54],0.39 µg/mL
